Test results: publication PMC11111691, “Cystine-knot peptide inhibitors of HTRA1 bind to a cryptic pocket within the active site region” (Nature Communications, 2024)

Key:
Format in all cases: biochemical
HTRA4^PD/PDZ, HTRA4^FL [1] = target: T1, HTRA4^PD/PDZ, HTRA4^FL (Homo sapiens, UniProt P83105); test: Fluorescence-quenched casein-BODIPY assay, HTRA4; conditions: 300 nM HTRA4^PD/PDZ, 2 µM CKP (0.5 mM 7mer-ABP)
T1 construct: purchased Abcam (FL form); the PD/PDZ form was made in house in E. coli ab134444
T1 sequence (P83105 153-476): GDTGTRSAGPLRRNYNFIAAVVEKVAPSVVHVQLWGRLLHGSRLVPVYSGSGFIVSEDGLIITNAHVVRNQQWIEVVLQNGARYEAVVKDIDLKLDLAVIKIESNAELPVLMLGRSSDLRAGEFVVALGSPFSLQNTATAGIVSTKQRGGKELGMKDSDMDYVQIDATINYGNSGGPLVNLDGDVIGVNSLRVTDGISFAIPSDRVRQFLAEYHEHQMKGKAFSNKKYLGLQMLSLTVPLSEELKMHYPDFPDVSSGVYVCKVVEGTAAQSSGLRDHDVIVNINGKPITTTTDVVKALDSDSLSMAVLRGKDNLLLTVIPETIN
Description: (§1) The fluorescence-quenched casein-BODIPY® assay (EnzCheck®, Thermo Fisher Scientific) was carried out in TNC buffer (50 mM Tris pH 8.0, 200 mM NaCl, 0.25% CHAPS) at 37 °C in 96-well black optical bottom plates (Nalge Nunc Int., Rochester, NY). Enzymes were incubated with CKPs or DMSO control for 15 min prior to addition of casein substrate. The reactant concentrations were: 30 nM HTRA1^FL, 30 nM HTRA1^PD/PDZ, 30 nM HTRA1^PD, 30 nM HTRA2^PD/PDZ, 30 nM HTRA3^FL, 100 nM HTRA3^PD/PDZ, 30 nM HTRA4^FL, 300 nM HTRA4^PD/PDZ, 2 µM CKP, 5 µg/ml casein substrate and 0.25% DMSO. For selectivity assays, 0.5 mM 7mer-ABP was used as positive control. The kinetics of substrate cleavage were measured at 37 °C on a SpectraMax M5 microplate reader (Molecular Devices) with excitation of 485 nm and emission of 530 nm for 30 min (HTRA1 and HTRA2) or 5 h (HTRA3 and HTRA4). The determined initial rates of cleavage were expressed as percent of control (DMSO control) after subtracting the baseline rates (without enzyme).

HTRA4^PD/PDZ, HTRA4^FL [2] = target: T2, HTRA4^PD/PDZ, HTRA4^FL (Homo sapiens, UniProt P83105); test: Fluorescence-quenched casein-BODIPY assay, HTRA4; conditions: 30 nM HTRA4^FL, 2 µM CKP (0.5 mM 7mer-ABP)
T2 construct: purchased Abcam (FL form); the PD/PDZ form was made in house in E. coli ab134444
T2 sequence (P83105 32-476): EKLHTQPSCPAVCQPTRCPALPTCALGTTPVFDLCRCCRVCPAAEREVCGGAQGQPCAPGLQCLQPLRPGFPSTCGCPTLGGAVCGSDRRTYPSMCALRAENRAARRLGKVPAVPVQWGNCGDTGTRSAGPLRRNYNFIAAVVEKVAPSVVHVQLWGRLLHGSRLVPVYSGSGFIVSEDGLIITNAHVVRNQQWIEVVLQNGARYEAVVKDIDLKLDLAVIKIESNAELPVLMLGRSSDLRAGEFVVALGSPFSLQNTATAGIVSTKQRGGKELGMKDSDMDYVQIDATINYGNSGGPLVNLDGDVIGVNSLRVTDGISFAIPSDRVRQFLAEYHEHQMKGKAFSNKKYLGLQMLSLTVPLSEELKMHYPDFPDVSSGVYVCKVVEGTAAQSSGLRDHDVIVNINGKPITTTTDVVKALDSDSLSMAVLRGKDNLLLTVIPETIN
Description: as §1

HTRA4^PD/PDZ, HTRA4^FL [3] = target: T1, HTRA4^PD/PDZ, HTRA4^FL; test: H2-OPT selectivity assay, HTRA4; conditions: 1 µM HTRA4^PD/PDZ, 2 µM CKP (0.5 mM 7mer-ABP), 5 µM H2-OPT
Description: (§2) Assays with the fluorescence-quenched synthetic substrate Mca-IRRVSYSFK(Dnp)K (H2-OPT)[38],[60] were carried out essentially as described. CKP stock solutions in DMSO were diluted in TNC buffer (dilution series for IC50 determinations, or final concentration of 2 µM for selectivity assay or as indicated for HTRA1/4 mutants) and incubated with enzymes in 96-well black optical bottom plates for 60 min at 37 °C. For selectivity experiments we used the 7mer-ABP as inhibitor, which was incubated with the proteases for 15 min at 37 °C. A 10 mM stock solution of H2-OPT in DMSO was diluted with water, prewarmed at 37 °C and then added to the CKP-enzyme mixtures. The final concentrations in the reaction mixtures were: 1 nM HTRA1^FL, 3 nM HTRA1^PD/PDZ, 1 nM HTRA1^PD, 1 nM HTRA2^PD/PDZ, 3 nM HTRA3^FL, 60 nM HTRA3^PD/PDZ, 6 nM HTRA4^FL, 1 µM HTRA4^PD/PDZ, 1 nM mouse HTRA1^PD, 25 nM HTRA1^PD-A202Y, 1 µM HTRA4^PD/PDZ-Y200A, 0.5 mM 7mer-ABP, 5 µM H2-OPT, and 0.25% DMSO. The kinetics of substrate cleavage was measured at 37 °C on a SpectraMax M5 microplate reader with excitation of 328 nm and emission of 393 nm. The determined initial rates of cleavage were expressed as percent of control (DMSO control) after subtracting the baseline rates (without enzyme). IC50 values were determined by Sigmoidal 4PL modeling of multiple data points from serial dilutions of CKPs using Prism 9 software (GraphPad). For selectivity assays with HTRA1-4^PD/PDZ constructs, the specific activities of the enzymes and enzyme:CKP inhibitor ratios were as follows: HTRA1^PD/PDZ, 12560 mRFU/min/nM – 1:667; HTRA2^PD/PDZ, 32300 mRFU/min/nM – 1:2000; HTRA3^PD/PDZ, 962 mRFU/min/nM – 1:33; HTRA4^PD/PDZ, 18 mRFU/min/nM – 1:2.

HTRA4^PD/PDZ, HTRA4^FL [4] = target: T2, HTRA4^PD/PDZ, HTRA4^FL; test: H2-OPT selectivity assay, HTRA4; conditions: 6 nM HTRA4^FL, 2 µM CKP (0.5 mM 7mer-ABP)
Description: as §2

DPMFKLV-phosphonate [7mer-ABP]
significantly inhibited: Inhibition of HTRA4^PD/PDZ, casein-BODIPY cleavage (% of control) (HTRA4^PD/PDZ, HTRA4^FL [1]) | Inhibition of HTRA4^FL, casein-BODIPY cleavage (% of control) (HTRA4^PD/PDZ, HTRA4^FL [2]) | Inhibition of HTRA4^PD/PDZ, H2-OPT (% of control) (HTRA4^PD/PDZ, HTRA4^FL [3]) | Inhibition of HTRA4^FL, H2-OPT (% of control) (HTRA4^PD/PDZ, HTRA4^FL [4])
